Test system: patients with metastatic castration-sensitive prostate cancer (mCSPC)
[1] = within 30 days of last dose, n = 524

CNC(=O)c1ccc(N2C(=S)N(c3cnc(C#N)c(C(F)(F)F)c3)C(=O)C23CCC3)cc1F [Apalutamide, 4-[7-(6-cyano-5-trifluoromethylpyridin-3-yl)-8-oxo-6-thioxo-5,7-diazaspiro[3.4]oct-5-yl]-2-fluoro-N-methylbenzamide]
AE leading to dose interruption: Syncope (Grade ≥3): 1 (0.2) no. (%) | AE leading to dose interruption: Thrombocytopenia (Grade ≥3): 0 no. (%) | AE leading to dose interruption: Tongue ulceration (Grade ≥3): 0 no. (%) | AE leading to dose interruption: Urethral stenosis (Grade ≥3): 0 no. (%) | AE leading to dose interruption: Urinary incontinence (Grade ≥3): 0 no. (%) | AE leading to dose interruption: Urinary retention (Grade ≥3): 2 (0.4) no. (%) | AE leading to dose interruption: Urinary tract obstruction (Grade ≥3): 1 (0.2) no. (%) | AE leading to dose interruption: Vertigo (Grade ≥3): 1 (0.2) no. (%) | AE leading to dose interruption: Vomiting (Grade ≥3): 0 no. (%) | AE leading to dose interruption: Weight increased (Grade ≥3): 0 no. (%) | AE leading to dose reduction: Aspartate aminotransferase or alanine aminotransferase increased (Grade ≥3): 0 no. (%) | AE leading to dose reduction: Asthenia (Grade ≥3): 0 no. (%) | AE leading to dose reduction: Cognitive disorder (Grade ≥3): 1 (0.2) no. (%) | AE leading to dose reduction: Dehydration (Grade ≥3): 0 no. (%) | AE leading to dose reduction: Fatigue (Grade ≥3): 2 (0.4) no. (%) | AE leading to dose reduction: General physical health deterioration (Grade ≥3): 1 (0.2) no. (%) | AE leading to dose reduction: Headache (Grade ≥3): 0 no. (%) | AE leading to dose reduction: Hot flush (Grade ≥3): 0 no. (%) | AE leading to dose reduction: Hypertension (Grade ≥3): 1 (0.2) no. (%) | AE leading to dose reduction: Lethargy (Grade ≥3): 0 no. (%) | AE leading to dose reduction: Neutropenia (Grade ≥3): 2 (0.4) no. (%) | AE leading to dose reduction: Pain (Grade ≥3): 0 no. (%) | AE leading to dose reduction: Performance status decreased (Grade ≥3): 0 no. (%) | AE leading to dose reduction: Rash (grouped term) (Grade ≥3): 11 (2.1) no. (%) | AE leading to dose reduction: Vertigo (Grade ≥3): 1 (0.2) no. (%) | AE leading to dose reduction: Weight decreased (Grade ≥3): 1 (0.2) no. (%) | AE of special interest: Fall (Grade ≥3): 4 (0.8) no. (%) | AE of special interest: Fracture (grouped term) (Grade ≥3): 7 (1.3) no. (%) | AE of special interest: Hypothyroidism (grouped term) (Grade ≥3): 0 no. (%) | AE of special interest: Rash (grouped term) (Grade ≥3): 33 (6.3) no. (%) | AE of special interest: Seizure (grouped term) (Grade ≥3): 1 (0.2) no. (%) | Patients with treatment-emergent adverse events leading to discontinuation (Grade ≥3): 26 (5.0) no. (%) | Patients with treatment-emergent adverse events leading to dose reduction (Grade ≥3): 19 (3.6) no. (%) | Patients with treatment-emergent events leading to dose interruption (Grade ≥3): 68 (13.0) no. (%) | TEAE: Anemia (Grade ≥3): 9 (1.7) no. (%) | TEAE: Arthralgia (Grade ≥3): 2 (0.4) no. (%) | TEAE: Asthenia (Grade ≥3): 10 (1.9) no. (%) | TEAE: Back pain (Grade ≥3): 12 (2.3) no. (%) | TEAE: Blood alkaline phosphatase increased (Grade ≥3): 2 (0.4) no. (%) | TEAE: Bone pain (Grade ≥3): 6 (1.1) no. (%) | TEAE: Constipation (Grade ≥3): 0 no. (%) | TEAE: Fatigue (Grade ≥3): 8 (1.5) no. (%) | TEAE: Hot flush (Grade ≥3): 0 no. (%) | TEAE: Hypertension (Grade ≥3): 44 (8.4) no. (%) | TEAE: Pain in extremity (Grade ≥3): 3 (0.6) no. (%) | TEAE: Pruritus (Grade ≥3): 1 (0.2) no. (%) | TEAE: Rash generalized (Grade ≥3): 14 (2.7) no. (%) | TEAE: Urinary retention (Grade ≥3): 0 no. (%) | TEAE: Weight increased (Grade ≥3): 6 (1.1) no. (%) | Patients who died as the result of an adverse event (Ten patients): 1.9% | Hypothyroidism reported (all events were grade 1 or 2): 6.5% | AE leading to discontinuation: Suicide (in vivo): 0 no. (%) | AE leading to dose interruption: Acute kidney injury (in vivo): 1 (0.2) no. (%) | AE leading to dose interruption: Acute respiratory failure (in vivo): 1 (0.2) no. (%) | AE leading to dose interruption: Allergy to chemicals (in vivo): 1 (0.2) no. (%) | AE leading to dose interruption: Anemia (in vivo): 0 no. (%) | AE leading to dose interruption: Angina unstable (in vivo): 0 no. (%) | Frequency of grade 3 and 4 events (in vivo): 42.2% | Frequency of serious adverse events (in vivo): 19.8% | Grade 3 rashes (in vivo): 6.3% | Ischemic events led to death (in vivo): two | Ischemic heart disease reported (in vivo): 4.4% | Median time to onset of rash (in vivo): 81 days | Most common event considered related to apalutamide: rash of any type (in vivo): 6.3% | Rash of any grade (treatment-emergent skin rash) (in vivo): 27.1% | Stevens-Johnson syndrome or toxic epidermal necrolysis (in vivo): No Stevens-Johnson syndrome or toxic epidermal necrolysis was reported | All deaths within 30 days of last dose (investigator reported, n = 524): 18 (3.4) no. (%) | AE leading to death: Acute coronary syndrome (n = 524): 0 no. (%) | AE leading to death: Acute kidney injury (n = 524): 2 (0.4) no. (%) | AE leading to death: Acute myocardial infarction (n = 524): 1 (0.2) no. (%) | AE leading to death: Cardiac failure (n = 524): 0 no. (%) | AE leading to death: Cardio-respiratory arrest (n = 524): 1 (0.2) no. (%) | AE leading to death: Cardiogenic shock (n = 524): 1 (0.2) no. (%) | AE leading to death: Cerebrovascular accident (n = 524): 1 (0.2) no. (%) | AE leading to death: Death (n = 524): 0 no. (%) | AE leading to death: Hypothermia (n = 524): 0 no. (%) | AE leading to death: Intracranial hemorrhage (n = 524): 0 no. (%) | AE leading to death: Myocardial infarction (n = 524): 1 (0.2) no. (%) | AE leading to death: Pulmonary embolism (n = 524): 0 no. (%) | AE leading to death: Respiratory failure (n = 524): 1 (0.2) no. (%) | AE leading to death: Sepsis (n = 524): 0 no. (%) | AE leading to death: Subdural hemorrhage (n = 524): 0 no. (%) | AE leading to death: Sudden cardiac death (n = 524): 1 (0.2) no. (%) | AE leading to death: Sudden death (n = 524): 0 no. (%) | AE leading to death: Suicide (n = 524): 0 no. (%) | AE leading to death: Urosepsis (n = 524): 0 no. (%) | AE leading to death: Vascular rupture (n = 524): 0 no. (%) | Adverse event leading to death (n = 524): 10 (1.9) no. (%) | Any adverse event (n = 524): 507 (96.8) no. (%) | Any adverse event leading to treatment discontinuation (n = 524): 42 (8.0) no. (%) | Any serious adverse event (n = 524): 104 (19.8) no. (%) | Grade 3 or 4 adverse event (n = 524): 221 (42.2) no. (%) | Patients with adverse events as the primary reason for discontinuation (n = 525): 39 (7.4) no. (%) | Patients with adverse events leading to discontinuation (n = 525 (Table 5)): 42 (8.0) no. (%) | Death due to adverse event [1]: 10 (1.9) no. (%) | Death due to prostate cancer [1]: 8 (1.5) no. (%)

Reference: US12303497B2, “Anti-androgens for the treatment of metastatic castration-sensitive prostate cancer” (priority 2019, dated 2025)
